Reference: patent publication US12629419B2, “Prevention or mitigation of T-cell engaging agent-related adverse effects” (Hoffmann-La Roche Inc., priority 2020, dated 2026)

Tested on: CD20-TCB-induced cytokine release
Test: CD20-TCB-induced cytokine release in non-tumor bearing humanized NSG mice (serum, Luminex)
Format: in vivo
Conditions: serum 4 hours and 24 hours after CD20-TCB; ruxolitinib 30 to 60 mg/kg
Experimental: FIG. 95. In vivo experiment timelines and dosing schedule.
Different doses of mTOR, JAK and Src kinase inhibitors were tested to determine the optimal dose that reduces CD20-TCB-induced cytokine release while minimally interfering with B cell depletion. […] The doses of 30 and 60 mg/kg were tested for ruxolitinib and the doses of 10 and 50 mg/kg were tested for dasatinib. To reproduce the clinical route of administration, the different kinase inhibitors were given orally (p.o.) once or twice per day as depicted in FIG. 95. Mice were bled 4 hours and 24 hours after the treatment with CD20-TCB (FIG. 95) to collect serum for cytokine level measurements by Luminex. Additionally, blood was collected 48 hours and 72 hours (termination) post treatment with CD20-TCB to measure the percentage of CD19+ B cells among human CD45+ cells by flow cytometry (FIG. 95).

N#CC[C@H](C1CCCC1)n1cc(-c2ncnc3[nH]ccc23)cn1 [ruxolitinib, Ruxolitinib]
CD20-TCB-mediated cytokine release other than IL-2 and GM-CSF: durably reduced
